# According to PubChem BioAssay (NCI):
#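 Five compound concentrations were applied to cells in 96-well plates for 48 hours; endpoints were derived by simple linear interpolation of the resulting dose-response curve. GI50 is the concentration that inhibits growth by half. At the TGI there is no net growth.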
# What was measured:
# Assay in all cases: growth of human tumour cells (NCI), 48 h
# UO-31 renal = test system: UO-31 renal
# MDA-MB-435 = test system: MDA-MB-435
# HCT-116 colon = test system: HCT-116 colon
# HCC-2998 colon = test system: HCC-2998 colon
# A549 NSCLC = test system: A549 NSCLC
# T-47D breast = test system: T-47D breast
# CAKI-1 renal = test system: CAKI-1 renal
# CCRF-CEM leukemia = test system: CCRF-CEM leukemia
# HL-60(TB) leukemia = test system: HL-60(TB) leukemia
# SF-539 CNS = test system: SF-539 CNS
# K-562 leukemia = test system: K-562 leukemia
# NCI-H460 lung = test system: NCI-H460 lung
# ACHN renal = test system: ACHN renal
# HS 578T breast = test system: HS 578T breast
# 786-0 renal = test system: 786-0 renal
# COLO 205 colon = test system: COLO 205 colon
# MDA-MB-231 breast = test system: MDA-MB-231 breast
# M14 melanoma = test system: M14 melanoma
# OVCAR-8 ovarian = test system: OVCAR-8 ovarian
# SK-MEL-5 melanoma = test system: SK-MEL-5 melanoma
# KM12 colon = test system: KM12 colon
# SNB-19 CNS = test system: SNB-19 CNS
# HT29 colon = test system: HT29 colon
# EKVX NSCLC = test system: EKVX NSCLC
# BT-549 breast = test system: BT-549 breast
# NCI/ADR-RES ovarian = test system: NCI/ADR-RES ovarian
# SNB-75 CNS = test system: SNB-75 CNS
# UACC-62 melanoma = test system: UACC-62 melanoma
# MALME-3M melanoma = test system: MALME-3M melanoma
# MCF7 breast = test system: MCF7 breast
# SW-620 colon = test system: SW-620 colon
# NCI-H226 lung = test system: NCI-H226 lung
# TK-10 renal = test system: TK-10 renal
# SK-MEL-2 melanoma = test system: SK-MEL-2 melanoma
# OVCAR-3 ovarian = test system: OVCAR-3 ovarian
# OVCAR-4 ovarian = test system: OVCAR-4 ovarian
# SN12C renal = test system: SN12C renal
# A498 renal = test system: A498 renal
# HCT-15 colon = test system: HCT-15 colon
# RXF 393 renal = test system: RXF 393 renal
# HOP-92 NSCLC = test system: HOP-92 NSCLC
# OVCAR-5 ovarian = test system: OVCAR-5 ovarian
# MOLT-4 leukemia = test system: MOLT-4 leukemia
# IGROV1 ovarian = test system: IGROV1 ovarian
# PC-3 prostate = test system: PC-3 prostate
# UACC-257 melanoma = test system: UACC-257 melanoma
# SF-295 CNS = test system: SF-295 CNS
# LOX IMVI melanoma = test system: LOX IMVI melanoma
# SK-OV-3 ovarian = test system: SK-OV-3 ovarian
# DU-145 prostate = test system: DU-145 prostate
# U251 CNS = test system: U251 CNS
# HOP-62 NSCLC = test system: HOP-62 NSCLC
# NCI-H23 lung = test system: NCI-H23 lung
# RPMI-8226 leukemia = test system: RPMI-8226 leukemia
# SF-268 CNS = test system: SF-268 CNS
# NCI-H522 lung = test system: NCI-H522 lung
# SK-MEL-28 melanoma = test system: SK-MEL-28 melanoma
# SR leukemia = test system: SR leukemia
structure (smiles),measurement,setting,value
CCCCCn1sc(=O)n(Cc2ccc(CNC(=O)OCc3ccc4cccc(O)c4n3)cc2)c1=O,GI50,UO-31 renal,1.07 µM
same,TGI,UO-31 renal,2.25 µM
same,GI50,MDA-MB-435,1.17 µM
same,TGI,MDA-MB-435,2.5 µM
same,GI50,HCT-116 colon,0.419 µM
same,TGI,HCT-116 colon,2.69 µM
same,GI50,HCC-2998 colon,2.09 µM
same,TGI,HCC-2998 colon,4.52 µM
same,GI50,A549 NSCLC,2.12 µM
same,TGI,A549 NSCLC,5.57 µM
same,GI50,T-47D breast,1.79 µM
same,TGI,T-47D breast,4.52 µM
same,GI50,CAKI-1 renal,0.935 µM
same,TGI,CAKI-1 renal,2.17 µM
same,GI50,CCRF-CEM leukemia,0.489 µM
same,TGI,CCRF-CEM leukemia,> 100 µM
same,GI50,HL-60(TB) leukemia,2.88 µM
same,TGI,HL-60(TB) leukemia,> 100 µM
same,GI50,SF-539 CNS,1.48 µM
same,TGI,SF-539 CNS,2.8 µM
same,GI50,K-562 leukemia,0.846 µM
same,TGI,K-562 leukemia,15.7 µM
same,GI50,NCI-H460 lung,1.8 µM
same,TGI,NCI-H460 lung,3.78 µM
same,GI50,ACHN renal,1.23 µM
same,TGI,ACHN renal,2.47 µM
same,GI50,HS 578T breast,2.17 µM
same,TGI,HS 578T breast,6.73 µM
same,GI50,786-0 renal,1.17 µM
same,TGI,786-0 renal,2.89 µM
same,GI50,COLO 205 colon,1.59 µM
same,TGI,COLO 205 colon,3.75 µM
same,GI50,MDA-MB-231 breast,1.32 µM
same,TGI,MDA-MB-231 breast,2.63 µM
same,GI50,M14 melanoma,1.33 µM
same,TGI,M14 melanoma,3.12 µM
same,GI50,OVCAR-8 ovarian,1.85 µM
same,TGI,OVCAR-8 ovarian,9.89 µM
same,GI50,SK-MEL-5 melanoma,1.69 µM
same,TGI,SK-MEL-5 melanoma,3.07 µM
same,GI50,KM12 colon,2.78 µM
same,TGI,KM12 colon,8.91 µM
same,GI50,SNB-19 CNS,4.44 µM
same,TGI,SNB-19 CNS,16.7 µM
same,GI50,HT29 colon,1.89 µM
same,TGI,HT29 colon,3.35 µM
same,GI50,EKVX NSCLC,2.01 µM
same,TGI,EKVX NSCLC,5.41 µM
same,GI50,BT-549 breast,1.44 µM
same,TGI,BT-549 breast,3.65 µM
same,GI50,NCI/ADR-RES ovarian,1.54 µM
same,TGI,NCI/ADR-RES ovarian,4.41 µM
same,GI50,SNB-75 CNS,1.14 µM
same,TGI,SNB-75 CNS,4.52 µM
same,GI50,UACC-62 melanoma,1.51 µM
same,TGI,UACC-62 melanoma,2.87 µM
same,GI50,MALME-3M melanoma,1.56 µM
same,TGI,MALME-3M melanoma,3 µM
same,GI50,MCF7 breast,1.34 µM
same,TGI,MCF7 breast,3.7 µM
same,GI50,SW-620 colon,1.25 µM
same,TGI,SW-620 colon,2.83 µM
same,GI50,NCI-H226 lung,1.47 µM
same,TGI,NCI-H226 lung,3.31 µM
same,GI50,TK-10 renal,1.19 µM
same,TGI,TK-10 renal,3.05 µM
same,GI50,SK-MEL-2 melanoma,1.72 µM
same,TGI,SK-MEL-2 melanoma,3.47 µM
same,GI50,OVCAR-3 ovarian,1.26 µM
same,TGI,OVCAR-3 ovarian,2.67 µM
same,GI50,OVCAR-4 ovarian,1.67 µM
same,TGI,OVCAR-4 ovarian,3.21 µM
same,GI50,SN12C renal,1.49 µM
same,TGI,SN12C renal,2.82 µM
same,GI50,A498 renal,1.73 µM
same,TGI,A498 renal,4.58 µM
same,GI50,HCT-15 colon,1.44 µM
same,TGI,HCT-15 colon,4.81 µM
same,GI50,RXF 393 renal,1.37 µM
same,TGI,RXF 393 renal,2.67 µM
same,GI50,HOP-92 NSCLC,1.21 µM
same,TGI,HOP-92 NSCLC,2.97 µM
same,GI50,OVCAR-5 ovarian,1.68 µM
same,TGI,OVCAR-5 ovarian,3.09 µM
same,GI50,MOLT-4 leukemia,3.02 µM
same,TGI,MOLT-4 leukemia,45.2 µM
same,GI50,IGROV1 ovarian,1.17 µM
same,TGI,IGROV1 ovarian,2.65 µM
same,GI50,PC-3 prostate,1.22 µM
same,TGI,PC-3 prostate,2.76 µM
same,GI50,UACC-257 melanoma,1.57 µM
same,TGI,UACC-257 melanoma,3.08 µM
same,GI50,SF-295 CNS,6.73 µM
same,TGI,SF-295 CNS,20.1 µM
same,GI50,LOX IMVI melanoma,1.09 µM
same,TGI,LOX IMVI melanoma,2.33 µM
same,GI50,SK-OV-3 ovarian,4.58 µM
same,TGI,SK-OV-3 ovarian,18.4 µM
same,GI50,DU-145 prostate,1.6 µM
same,TGI,DU-145 prostate,3.09 µM
same,GI50,U251 CNS,1.77 µM
same,TGI,U251 CNS,3.45 µM
same,GI50,HOP-62 NSCLC,2.73 µM
same,TGI,HOP-62 NSCLC,14.9 µM
same,GI50,NCI-H23 lung,1.67 µM
same,TGI,NCI-H23 lung,3.59 µM
same,GI50,RPMI-8226 leukemia,1.56 µM
same,TGI,RPMI-8226 leukemia,11.2 µM
same,GI50,SF-268 CNS,1.82 µM
same,TGI,SF-268 CNS,4.14 µM
same,GI50,NCI-H522 lung,1.07 µM
same,TGI,NCI-H522 lung,2.74 µM
same,GI50,SK-MEL-28 melanoma,1.6 µM
same,TGI,SK-MEL-28 melanoma,2.94 µM
COc1cc(C2C3=C(COC3=O)Oc3cc4c(cc32)OCO4)cc(OC)c1OC(C)=O (configuration not stated),TGI,UO-31 renal,> 39.4 µM
same,TGI,HCC-2998 colon,> 100 µM
same,TGI,A549 NSCLC,> 100 µM
same,TGI,CAKI-1 renal,> 100 µM
same,TGI,SR leukemia,> 100 µM
same,TGI,CCRF-CEM leukemia,> 100 µM
same,TGI,HL-60(TB) leukemia,0.615 µM
same,TGI,K-562 leukemia,> 100 µM
same,TGI,NCI-H460 lung,> 100 µM
same,TGI,ACHN renal,> 57.2 µM
same,TGI,786-0 renal,> 100 µM
same,TGI,COLO 205 colon,0.336 µM
same,TGI,M14 melanoma,> 100 µM
same,TGI,OVCAR-8 ovarian,> 100 µM
same,TGI,SK-MEL-5 melanoma,0.0785 µM
same,TGI,KM12 colon,> 100 µM
same,TGI,SNB-19 CNS,> 100 µM
same,TGI,EKVX NSCLC,> 100 µM
same,TGI,BT-549 breast,5.74 µM
same,TGI,MALME-3M melanoma,> 100 µM
same,TGI,MCF7 breast,> 51.6 µM
same,TGI,TK-10 renal,> 100 µM
same,TGI,SK-MEL-2 melanoma,> 100 µM
same,TGI,OVCAR-3 ovarian,> 100 µM
same,TGI,OVCAR-4 ovarian,> 100 µM
same,TGI,SN12C renal,> 100 µM
same,TGI,A498 renal,0.618 µM
same,TGI,HCT-15 colon,> 100 µM
same,TGI,MOLT-4 leukemia,> 100 µM
same,TGI,IGROV1 ovarian,10.9 µM
same,TGI,UACC-257 melanoma,> 100 µM
same,TGI,LOX IMVI melanoma,> 24.1 µM
same,TGI,DU-145 prostate,> 100 µM
same,TGI,U251 CNS,> 100 µM
same,TGI,HOP-62 NSCLC,> 100 µM
same,TGI,RPMI-8226 leukemia,> 100 µM
same,TGI,SF-268 CNS,> 100 µM
same,TGI,NCI-H522 lung,> 100 µM
